Source: US12723063B2, “GIPR-agonist compounds” (Eli Lilly and Company, priority 2019, dated 2026)
*1 amine or outer side, *2 acyl side, *3 side chain or, on linkers, in order; H or OH if unused. Where a SMILES comes first, the peptide text is derived from it. Side-chain parts run from the residue outwards. [ ]: non-standard residue; d: D form. The star is where a group is joined. C20 diacid = O=C(O)CCCCCCCCCCCCCCCCCCC(=O)*; C18 diacid = O=C(O)CCCCCCCCCCCCCCCCC(=O)*; γGlu = O=C(O)[C@H](CCC(=O)[*:2])N[*:1]; 4Pal = N[C@@H](Cc1ccncc1)C(=O)O; αMeL = CC(C)C[C@](C)(N)C(=O)O; Iva = CC[C@](C)(N)C(=O)O; Orn = NCCC[C@H](N)C(=O)O; AEEA = NCCOCCOCC(=O)O; Aib = CC(C)(N)C(=O)O

What was measured:
[1] = molecular target: T1, human glucose-dependent insulinotropic peptide receptor (GIPR) (Homo sapiens, UniProt P48546); assay: cAMP functional assay (HTRF) in HEK293 cells in presence of 0.1% casein; type: cell-based; details: HEK293 cells expressing human GIPR, geometric mean, read-out: hGIPR cAMP Rel EC50 nM (SEM, n)
T1 construct: expressed in transfected cells; host or cells: HEK293
T1 sequence (P48546 22-466): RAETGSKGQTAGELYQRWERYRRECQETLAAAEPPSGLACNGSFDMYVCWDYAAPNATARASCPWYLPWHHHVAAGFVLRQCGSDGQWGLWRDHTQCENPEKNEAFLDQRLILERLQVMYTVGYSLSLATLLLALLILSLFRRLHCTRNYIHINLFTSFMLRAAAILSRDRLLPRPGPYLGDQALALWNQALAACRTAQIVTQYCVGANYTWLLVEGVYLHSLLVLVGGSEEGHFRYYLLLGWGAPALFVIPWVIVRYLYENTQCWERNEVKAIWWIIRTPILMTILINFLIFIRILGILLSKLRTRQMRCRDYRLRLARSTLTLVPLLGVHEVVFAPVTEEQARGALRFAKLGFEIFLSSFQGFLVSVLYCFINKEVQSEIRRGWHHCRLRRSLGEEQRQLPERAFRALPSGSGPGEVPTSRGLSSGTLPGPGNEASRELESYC

[2] = molecular target: T2, human glucagon receptor (GcgR) (Homo sapiens, UniProt P47871); assay: as above; type: cell-based; details: HEK293 cells expressing human GcgR, geometric mean, read-out: hGcgR cAMP Rel EC50 nM (SEM, n)
T2 construct: expressed in transfected cells; host or cells: HEK293
T2 sequence (P47871 26-477): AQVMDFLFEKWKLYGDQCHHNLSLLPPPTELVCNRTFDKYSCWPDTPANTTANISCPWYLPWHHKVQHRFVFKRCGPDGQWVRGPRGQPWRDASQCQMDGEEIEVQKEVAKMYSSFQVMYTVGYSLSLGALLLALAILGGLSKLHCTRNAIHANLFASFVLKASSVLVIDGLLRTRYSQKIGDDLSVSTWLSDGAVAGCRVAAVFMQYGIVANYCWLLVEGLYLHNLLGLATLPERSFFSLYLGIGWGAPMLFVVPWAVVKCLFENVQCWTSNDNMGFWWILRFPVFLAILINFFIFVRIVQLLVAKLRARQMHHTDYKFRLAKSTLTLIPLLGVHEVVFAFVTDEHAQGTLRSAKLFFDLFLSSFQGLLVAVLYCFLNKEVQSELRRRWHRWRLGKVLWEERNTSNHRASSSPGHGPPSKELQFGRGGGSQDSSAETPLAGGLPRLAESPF

`CC[C@H](C)[C@H](NC(=O)[C@H](Cc1ccccc1)NC(=O)[C@@H](NC(=O)CNC(=O)[C@H](CCC(=O)O)NC(=O)C(C)(C)NC(=O)[C@@H](N)Cc1ccc(O)cc1)[C@@H](C)O)C(=O)N[C@@H](CO)C(=O)N[C@@H](CC(=O)O)C(=O)N[C@@H](Cc1ccc(O)cc1)C(=O)N[C@@H](CO)C(=O)N[C@H](C(=O)N[C@@](C)(CC(C)C)C(=O)N[C@@H](CC(C)C)C(=O)N[C@@H](CC(=O)O)C(=O)N[C@@H](CCC(=O)O)C(=O)N[C@@H](CCCCNC(=O)COCCOCCNC(=O)COCCOCCNC(=O)CC[C@H](NC(=O)CCCCCCCCCCCCCCCCCCC(=O)O)C(=O)O)C(=O)N[C@@H](Cc1c[nH]cn1)C(=O)N[C@@H](CCC(N)=O)C(=O)NC(C)(C)C(=O)N[C@@H](CC(=O)O)C(=O)N[C@@H](Cc1ccccc1)C(=O)N[C@H](C(=O)N[C@@H](CCC(=O)O)C(=O)N[C@@H](Cc1ccncc1)C(=O)N[C@@H](CC(C)C)C(=O)N[C@@H](CC(C)C)C(=O)N[C@@H](C)C(=O)N[C@@H](C)C(=O)NCC(=O)N1CCC[C@H]1C(=O)N[C@@H](CO)C(=O)N[C@@H](CO)C(=O)NCC(=O)N[C@@H](C)C(=O)N1CCC[C@H]1C(=O)N1CCC[C@H]1C(=O)N1CCC[C@H]1C(=O)N[C@@H](CO)C(N)=O)C(C)C)[C@@H](C)CC` [Example 85] was tested. Which EC50 [1] did it give?
The EC50 was 0.0359 nM.

And the EC50 [2]?
Its EC50 is over 5000 nM.

Which EC50 [1] does the source give for `CC[C@H](C)[C@H](NC(=O)[C@H](Cc1ccccc1)NC(=O)[C@@H](NC(=O)CNC(=O)[C@H](CCC(=O)O)NC(=O)C(C)(C)NC(=O)[C@@H](N)Cc1ccc(O)cc1)[C@@H](C)O)C(=O)N[C@@H](CO)C(=O)N[C@@H](CC(=O)O)C(=O)N[C@@H](Cc1ccc(O)cc1)C(=O)N[C@@H](CO)C(=O)N[C@H](C(=O)N[C@@](C)(CC(C)C)C(=O)N[C@@H](CC(C)C)C(=O)N[C@@H](CC(=O)O)C(=O)N[C@@H](CCC(=O)O)C(=O)N[C@@H](CCCCNC(=O)COCCOCCNC(=O)COCCOCCNC(=O)CC[C@H](NC(=O)CCCCCCCCCCCCCCCCCCC(=O)O)C(=O)O)C(=O)N[C@@H](Cc1c[nH]cn1)C(=O)N[C@@H](CCC(N)=O)C(=O)NC(C)(C)C(=O)N[C@@H](CC(=O)O)C(=O)N[C@@H](Cc1ccccc1)C(=O)N[C@H](C(=O)N[C@@H](CCC(=O)O)C(=O)N[C@@H](Cc1ccncc1)C(=O)N[C@@H](CC(C)C)C(=O)N[C@@H](CC(C)C)C(=O)N[C@@H](C)C(=O)NCC(=O)NCC(=O)N1CCC[C@H]1C(=O)N[C@@H](CO)C(=O)N[C@@H](CO)C(=O)NCC(=O)N[C@@H](C)C(=O)N1CCC[C@H]1C(=O)N1CCC[C@H]1C(=O)N1CCC[C@H]1C(=O)N[C@@H](CO)C(N)=O)C(C)C)[C@@H](C)CC` [Example 86] here?
Its EC50 is 0.03 nM.

And the EC50 [2]?
Its EC50 is over 5000 nM.

How did the EC50 [1] turn out when `CC[C@H](C)[C@H](NC(=O)[C@H](Cc1ccccc1)NC(=O)[C@@H](NC(=O)CNC(=O)[C@H](CCC(=O)O)NC(=O)C(C)(C)NC(=O)[C@@H](N)Cc1ccc(O)cc1)[C@@H](C)O)C(=O)N[C@@H](CO)C(=O)N[C@@H](CC(=O)O)C(=O)N[C@@H](Cc1ccc(O)cc1)C(=O)N[C@@H](CO)C(=O)N[C@H](C(=O)N[C@@](C)(CC(C)C)C(=O)N[C@@H](CC(C)C)C(=O)N[C@@H](CC(=O)O)C(=O)N[C@@H](CCCN)C(=O)N[C@@H](CCCCNC(=O)COCCOCCNC(=O)COCCOCCNC(=O)CC[C@H](NC(=O)CCCCCCCCCCCCCCCCC(=O)O)C(=O)O)C(=O)N[C@@H](Cc1c[nH]cn1)C(=O)N[C@@H](CCC(N)=O)C(=O)NC(C)(C)C(=O)N[C@@H](CC(=O)O)C(=O)N[C@@H](Cc1ccccc1)C(=O)N[C@H](C(=O)N[C@@H](CCC(=O)O)C(=O)N[C@@H](Cc1ccncc1)C(=O)N[C@@H](CC(C)C)C(=O)N[C@@H](CC(C)C)C(=O)N[C@@H](CCC(=O)O)C(=O)N[C@@H](C)C(=O)NCC(=O)N1CCC[C@H]1C(=O)N[C@@H](CO)C(=O)N[C@@H](CO)C(=O)NCC(=O)N[C@@H](C)C(=O)N1CCC[C@H]1C(=O)N1CCC[C@H]1C(=O)N1CCC[C@H]1C(=O)N[C@@H](CO)C(N)=O)C(C)C)[C@@H](C)CC` [Example 87] (H-Y[Aib]EGTFISDYSI[αMeL]LD[Orn]K([AEEA-AEEA-γGlu-C18 diacid])HQ[Aib]DFVE[4Pal]LLEAGPSSGAPPPS-NH2) was run?
The EC50 was 0.0107 nM.

And the EC50 [2]?
Its EC50 is over 5000 nM.

Which results are given for `CC[C@H](C)[C@H](NC(=O)[C@H](CO)NC(=O)[C@H](Cc1ccc(O)cc1)NC(=O)[C@H](CC(=O)O)NC(=O)[C@H](CO)NC(=O)[C@@H](NC(=O)[C@](C)(CC)NC(=O)[C@@H](NC(=O)CNC(=O)[C@H](CCC(=O)O)NC(=O)C(C)(C)NC(=O)[C@@H](N)Cc1ccc(O)cc1)[C@@H](C)O)[C@@H](C)CC)C(=O)N[C@@](C)(CC(C)C)C(=O)N[C@@H](CC(C)C)C(=O)N[C@@H](CC(=O)O)C(=O)N[C@@H](CCCCN)C(=O)N[C@@H](CCCCNC(=O)COCCOCCNC(=O)COCCOCCNC(=O)CC[C@H](NC(=O)CCCCCCCCCCCCCCCCCCC(=O)O)C(=O)O)C(=O)N[C@@H](Cc1c[nH]cn1)C(=O)N[C@@H](CCC(N)=O)C(=O)NC(C)(C)C(=O)N[C@@H](CC(=O)O)C(=O)N[C@@H](Cc1ccccc1)C(=O)N[C@H](C(=O)N[C@@H](CCC(=O)O)C(=O)N[C@@H](Cc1ccncc1)C(=O)N[C@@H](CC(C)C)C(=O)N[C@@H](CC(C)C)C(=O)N[C@@H](CCC(=O)O)C(=O)N[C@@H](C)C(=O)NCC(=O)N1CCC[C@H]1C(=O)N[C@@H](CO)C(=O)N[C@@H](CO)C(=O)NCC(=O)N[C@@H](C)C(=O)N1CCC[C@H]1C(=O)N1CCC[C@H]1C(=O)N1CCC[C@H]1C(=O)N[C@@H](CO)C(N)=O)C(C)C` [Example 88] (H-Y[Aib]EGT[Iva]ISDYSI[αMeL]LDKK([AEEA-AEEA-γGlu-C20 diacid])HQ[Aib]DFVE[4Pal]LLEAGPSSGAPPPS-NH2)?
EC50 [1]: 0.0031 nM; EC50 [2]: 1670 nM

With `CC[C@H](C)[C@H](NC(=O)[C@H](CC(C)C)NC(=O)[C@@H](NC(=O)CNC(=O)[C@H](CCC(=O)O)NC(=O)C(C)(C)NC(=O)[C@@H](N)Cc1ccc(O)cc1)[C@@H](C)O)C(=O)N[C@@H](CO)C(=O)N[C@@H](CC(=O)O)C(=O)N[C@@H](Cc1ccc(O)cc1)C(=O)N[C@@H](CO)C(=O)N[C@H](C(=O)N[C@@](C)(CC(C)C)C(=O)N[C@@H](CC(C)C)C(=O)N[C@@H](CC(=O)O)C(=O)N[C@@H](CCCCN)C(=O)N[C@@H](CCCCNC(=O)COCCOCCNC(=O)COCCOCCNC(=O)CC[C@H](NC(=O)CCCCCCCCCCCCCCCCCCC(=O)O)C(=O)O)C(=O)N[C@@H](Cc1c[nH]cn1)C(=O)N[C@@H](CCC(N)=O)C(=O)NC(C)(C)C(=O)N[C@@H](CC(=O)O)C(=O)N[C@@H](Cc1ccccc1)C(=O)N[C@H](C(=O)N[C@@H](CCC(=O)O)C(=O)N[C@@H](Cc1ccncc1)C(=O)N[C@@H](CC(C)C)C(=O)N[C@@H](CC(C)C)C(=O)N[C@@H](CCC(=O)O)C(=O)N[C@@H](C)C(=O)NCC(=O)N1CCC[C@H]1C(=O)N[C@@H](CO)C(=O)N[C@@H](CO)C(=O)NCC(=O)N[C@@H](C)C(=O)N1CCC[C@H]1C(=O)N1CCC[C@H]1C(=O)N1CCC[C@H]1C(=O)N[C@@H](CO)C(N)=O)C(C)C)[C@@H](C)CC` [Example 89] (H-Y[Aib]EGTLISDYSI[αMeL]LDKK([AEEA-AEEA-γGlu-C20 diacid])HQ[Aib]DFVE[4Pal]LLEAGPSSGAPPPS-NH2) as the molecule, how does the EC50 [1] read?
Its EC50 is 0.00687 nM.

What about the EC50 [2] of the same molecule?
Its EC50 is over 5000 nM.
